Consider 10 compounds from article PMC11380953, “Multivalent, calcium-independent binding of surfactant protein A and D to sulfated glycosaminoglycans of the alveolar epithelial glycocalyx” (American Journal of Physiology - Lung Cellular and …, 2024).

The target in assay [1] is T1, hSP-A (human SP-A, isolated from BAL of PAP patient) (Homo sapiens, UniProt Q8IWL1+Q8IWL2).
T1 construct: Human PAP patient, BAL isolated; from tissue; host or cells: bronchoalveolar lavage fluid of a patient with pulmonary alveolar proteinosis
The assay can be described thus: Microscale thermophoresis (MST) binding to hSP-A. Conditions: for Kd: hSP-A, apparent KD at protein 9 nM, 25°C, read-out: KD (MST Measurements) ±Kd confidence. The method, then: (§1) Human-isolated and recombinant proteins were labeled using the Monolith Protein Labeling Kit RED-NHS according to the manufacturer’s instructions. This kit reagent reacts with lysine residues present in the sequence of the protein, as the dye carries a reactive NHS-ester group. Briefly, as all the proteins were in a Tris buffer solution, the buffer solution was exchanged to a HEPES-based buffer with the A-Column provided in the kit. Then, 10 µM solution of protein was incubated with a threefold excess of dye in 100 µL for 30 min at room temperature protected from light. The labeled protein was separated from the free dye using the B-Column provided in the kit. The concentration of the labeled protein {c(M) = [A205 − (A650 × 0.19)]/[31 × MWprotein]) and the degree of labeling [DOL = A650/(195.000 M^−1cm^−1 × c(M)] were calculated according to the manufacturer’s instruction, measuring absorption at 205 nm (for the protein) and 650 nm (for the dye).
(§2) Thermophoresis is the phenomenon of movement of particles along a temperature gradient. Solvated molecules move from higher to lower temperature. This movement or depletion of molecules from the heat is quantified by the Soret coefficient ST: Chot/Ccold = exp (−STΔT). The depletion of molecules depends on the interface between molecule and solvent. Therefore, thermophoresis monitors changes in size, charge, and solvation entropy of molecules. In this regard, the thermophoresis or movement of a protein is different from a protein-ligand complex ([35]). Microscale or miniaturized thermophoresis allows to monitor molecular interaction in only a few microliters. For this method, the fluorescently labeled protein is mixed with a decreasing concentration of a ligand in 16 glass capillaries. The initial fluorescence is measured (Fcold), then an infrared (IR) laser beam is switched on and focused on the center of the first capillary, where the temperature gradient is created from the center to the walls of the capillary. At the same time, a dichroic mirror allows fluorescence from the labeled protein to be monitored (Fhot). The rate of fluorescence change is related to the amount of protein-ligand complex form, which depends on the ligand concentration, due to changes in size, charge, or hydration shell of the protein-ligand complex. The dissociation constant KD is calculated from the binding curve derived by plotting the normalized fluorescence (FNorm) at a given time after the start of the thermophoresis against the respective ligand concentration ([33], [34], [36]).
(§3) Samples were measured in a Monolith NT.115, using Premium Capillaries (MO-K025) and Monolith Protein labeling kit RED-NHS (MO-L011) all from NanoTemper Technologies (Munich, Germany). Solutions of a 3X concentrated MST buffer (15 mM Tris, 300 mM NaCl, 0.3% Tween 20, 15 mM CaCl2, pH 7.4), sugars (270 mM) or GAG (30 µM) solution, and protein solution (27 nM) were prepared separately. When a different concentration was used, a threefold concentration of the solution was prepared. Afterward, sugars and GAG solutions were diluted 1:2 with water in a series of 16 steps. For the measurement, 3 µL of each prepared component (3 µL MST buffer, 3 µL GAG solution, and 3 µL labeled protein) was mixed, centrifuged shortly to eliminate precipitates, and loaded into a glass capillary. The final concentrations of the sugars were thus between 90 –and 0.00275 mM or GAGs 10 and 0.000305 µM for GAGs, respectively. The 16 capillaries were loaded in the Monolith NT.115 and measurements were performed with a 40% LED power and medium MST power at 25°C.
(§4) Every set of 16 capillaries was prepared in 3–6 replicates (technical replicates) and measured. The replicate measures of every capillary were plotted against concentration and outliers were excluded, using the MO Affinity Analysis 3 v01 software (NanoTemper Technologies, Munich, Germany). […]

Assay [2] deals with T2, rhSP-D (human recombinant SP-D) (Homo sapiens, UniProt P35247).
T2 construct: host or cells: CHO cells
T2 sequence (P35247 21-375): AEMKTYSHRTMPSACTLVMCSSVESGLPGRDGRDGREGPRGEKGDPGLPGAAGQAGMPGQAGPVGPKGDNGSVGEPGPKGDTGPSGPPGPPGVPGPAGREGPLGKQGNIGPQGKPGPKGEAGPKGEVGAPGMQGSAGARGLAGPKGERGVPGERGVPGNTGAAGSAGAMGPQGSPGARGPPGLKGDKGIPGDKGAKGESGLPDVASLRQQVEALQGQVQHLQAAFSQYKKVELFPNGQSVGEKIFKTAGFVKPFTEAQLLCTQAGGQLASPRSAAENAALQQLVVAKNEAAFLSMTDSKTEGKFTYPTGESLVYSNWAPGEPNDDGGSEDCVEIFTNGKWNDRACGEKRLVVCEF
The assay is described as follows: Microscale thermophoresis (MST) binding to rhSP-D. The note with it: apparent KD at protein 9 nM, 25°C, read-out: KD (MST Measurements) ±Kd confidence. On the procedure:
as §1, §2, §3, §4
(Microscale thermophoresis detects binding through changes in fluorescence in a small temperature gradient.)

In assay [3] the test system is human SP-A. Set-up: method as in Haagsman et al.; [18]. Conditions: ref Haagsman et al., [18]; cited from earlier work.
The test system of another assay is human SP-D. Set-up: method as in Lu et al.; [19]. Conditions: ref Lu et al., [19]; cited from earlier work.
The test system of a further assay is recombinant human SP-D. On the set-up: method as in van Eijk et al.; [42]. The note with it: ref van Eijk et al., [42], read-out: IC50 mean ± SE; cited from earlier work.
Assay [4] concerns recombinant construct containing the N-terminal tagged fusion protein +neck and CRD of human SP-D. Set-up: method as in Crouch et al. 2006 [47]. Conditions: ref Crouch et al. 2006 [47], read-out: I50 mean ± SE; cited from earlier work.
Assay [5] deals with human SP-A. Set-up: method as in Haurum et al.; [41]. The note with it: ref Haurum et al., [41], read-out: IC50 mean ±SD; cited from earlier work.

T1 sequence (Q8IWL2 21-248): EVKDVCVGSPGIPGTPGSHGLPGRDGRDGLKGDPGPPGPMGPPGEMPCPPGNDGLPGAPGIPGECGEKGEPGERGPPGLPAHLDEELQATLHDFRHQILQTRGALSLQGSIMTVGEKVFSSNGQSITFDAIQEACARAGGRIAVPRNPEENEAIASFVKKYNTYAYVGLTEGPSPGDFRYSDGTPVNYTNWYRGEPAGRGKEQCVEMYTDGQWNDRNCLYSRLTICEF
T1 sequence (Q8IWL1 21-248): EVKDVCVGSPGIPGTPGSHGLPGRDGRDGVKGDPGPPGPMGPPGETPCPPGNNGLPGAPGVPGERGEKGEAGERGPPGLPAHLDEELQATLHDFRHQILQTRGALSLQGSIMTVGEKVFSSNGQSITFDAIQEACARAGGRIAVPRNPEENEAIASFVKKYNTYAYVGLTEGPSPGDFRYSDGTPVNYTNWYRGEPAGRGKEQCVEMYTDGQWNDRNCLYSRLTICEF

Regarding `CC(=O)N[C@@H]1[C@@H](O)[C@H](O)[C@@H](CO)O[C@@H]1O` [GlcNAc, N-acetyl-D-glucosamine], the Kd in assay [1] turned out to be 0.16 mM; in assay [2], 0.13 mM. For the same compound, the “Amount of SP-A bound” value in the assay on human SP-A [3] was 2%. Also, the IC50 in the assay with human SP-D was 28.5 mM; with recombinant human SP-D, 13.5 ± 4.5 mM; in assay [4] it was 14 ± 2 mM.
For the compound `CC(=O)N[C@@H]1C(O)O[C@H](CO)[C@@H](O)[C@@H]1O` (stereo partly drawn) [ManNAc, N-acetyl-D-mannosamine monohydrate], the Kd was 0.06 mM in assay [1] and 5.39 mM in assay [2]. The values for the IC50 (with human SP-A [5]; in the assay on recombinant human SP-D; in assay [4]) were 8 ± 1 mM, 1.8 ± 0.3 mM and 2.1 ± 0.4 mM, respectively.
As to `OC[C@H]1OC(O)[C@@H](O)[C@@H](O)[C@@H]1O` (stereo partly drawn) [Man, D(+)-mannose], the values for the Kd in assay [1] and in assay [2] were 0.14 mM and 0.02 mM, respectively. Also, the “Amount of SP-A bound” value in the assay on human SP-A [3] is recorded as 95 ± 10%. In addition, the IC50 in the assay on human SP-A [5] was 39 ± 3 mM; in the assay with human SP-D, 7.5 mM; with recombinant human SP-D, 2.9 ± 0.4 mM; in assay [4], 5.3 ± 0.5 mM.
`OC[C@H]1O[C@H](O[C@H]2[C@H](O)[C@@H](O)[C@H](O)O[C@@H]2CO)[C@H](O)[C@@H](O)[C@@H]1O` [Maltose, D(+)-maltose]: the Kd in assay [1] was 0.03 mM; in assay [2], 0.45 mM. Further, the IC50 was 23 ± 5 mM in the assay on human SP-A [5], 5.1 mM with human SP-D, 4.1 ± 0.9 mM in the assay on recombinant human SP-D and 2.7 ± 0.4 mM in assay [4].
For `O=C[C@H](O)[C@@H](O)[C@@H](O)[C@H](O)CO` [Gal, D(+)-galactose], the “binding of hSP-A to sugar, calcium dependence” value in assay [1] (MST, 0-10 mM calcium, 0-20 mM EDTA (Fig. 1D, E)) is “only seen in the presence of calcium”. The values for the Kd in assay [1] and in assay [2] were 1.94 mM and 0.82 mM, respectively. Also, the “Amount of SP-A bound” value in the assay on human SP-A [3] is listed as 100%. The IC50 is 22 mM with human SP-D, 7.9 ± 3.8 mM with recombinant human SP-D and 10 ± 2 mM in assay [4].
With `CC(=O)N[C@H]1[C@H]([C@H](O)[C@H](O)CO)OC(O)(C(=O)O)C[C@@H]1O` (stereo partly drawn) [Neu5Ac, N-acetyl-neuraminic acid], the values for the Kd in assay [1] and in assay [2] were 0.21 mM and 0.27 mM, respectively.
In the case of `CC(=O)N[C@H]1C(O)O[C@H](CO)[C@H](O)[C@@H]1O` (stereo partly drawn) [GalNAc, N-acetyl-D-galactosamine], the Kd in assay [1] came out at 7.27 mM; in assay [2] it was 0.39 mM. In addition, in the assay with human SP-A [3], the “Amount of SP-A bound” value is 7%.
As to `C[C@H](O)[C@@H](O)[C@@H](O)[C@H](O)C=O` [Fuc, L-fucose], the Kd in assay [1] stood at 4.07 mM; in assay [2] it was 0.37 mM. Besides, in the assay with human SP-A [3], the “Amount of SP-A bound” value is listed as 100%. In addition, the IC50 in the assay with human SP-A [5] is 22 ± 1 mM; with human SP-D, 6.5 mM; with recombinant human SP-D, 4.4 ± 0.1 mM.
Take `OC[C@@H]1OC(O)[C@@H](O)[C@H](O)[C@H]1O` (stereo partly drawn) [Glc, L(−)-glucose]: the Kd was 1.39 mM in assay [1] and 0.12 mM in assay [2]. Moreover, in the assay on human SP-A [3], the “Amount of SP-A bound” value is listed as 100%. The IC50 in the assay on human SP-A [5] was 30 ± 1 mM; with human SP-D it was 9.6 mM; in the assay with recombinant human SP-D, 4 ± 1 mM; in assay [4], 4.1 ± 0.9 mM.
As for `O=C[C@H](O)[C@@H](O)[C@H](O)[C@H](O)C(=O)O` [GlcAc, D-glucuronic acid], the results for the Kd in assay [1] and in assay [2] were 0.09 mM and 0.005 mM, respectively.
